Molecular target: human CNR2 receptors (CB2 receptor) (Homo sapiens (Human), UniProt P34972)
Assay: Radioligand binding assay, human CB2 (CNR2)
Details: not given
Procedure: Radioligand Binding Assay
The affinity of the compounds of the invention for cannabinoid CB1 receptors was determined using recommended amounts of membrane preparations (PerkinElmer) of human embryonic kidney (HEK) cells expressing the human CNR1 or CNR2 receptors in conjunction with 1.5 or 2.6 nM [3H]-CP-55,940 (Perkin Elmer) as radioligand, respectively. Binding was performed in binding buffer (50 mM Tris, 5 mM MgCl2, 2.5 mM EDTA, and 0.5% (wt/vol) fatty acid free BSA, pH 7.4 for CB1 receptor and 50 mM Tris, 5 mM MgCl2, 2.5 mM EGTA, and 0.1% (wt/vol) fatty acid free BSA, pH 7.4 for CB2 receptor) in a total volume of 0.2 ml for 1 h at 30° C. shaking. The reaction was terminated by rapid filtration through microfiltration plates coated with 0.5% polyethylenimine (UniFilter GFB filter plate; Packard). Bound radioactivity was analyzed for Ki using nonlinear regression analysis (Activity Base, ID Business Solution, Limited), with the Kd values for [3H]CP55,940 determined from saturation experiments. The compounds of formula (I) show an excellent affinity for the CB2 receptor.
The compounds according to formula (I) have an activity in the above assay (Ki) between 0.5 nM and 10 μM. Particular compounds of formula (I) have an activity in the above assay (Ki) between 0.5 nM and 3 μM. Other particular compounds of formula (I) have an activity in the above assay (Ki) between 0.5 nM and 100 nM.

Sequence of human CNR2 receptors (CB2 receptor) (P34972 whole entry): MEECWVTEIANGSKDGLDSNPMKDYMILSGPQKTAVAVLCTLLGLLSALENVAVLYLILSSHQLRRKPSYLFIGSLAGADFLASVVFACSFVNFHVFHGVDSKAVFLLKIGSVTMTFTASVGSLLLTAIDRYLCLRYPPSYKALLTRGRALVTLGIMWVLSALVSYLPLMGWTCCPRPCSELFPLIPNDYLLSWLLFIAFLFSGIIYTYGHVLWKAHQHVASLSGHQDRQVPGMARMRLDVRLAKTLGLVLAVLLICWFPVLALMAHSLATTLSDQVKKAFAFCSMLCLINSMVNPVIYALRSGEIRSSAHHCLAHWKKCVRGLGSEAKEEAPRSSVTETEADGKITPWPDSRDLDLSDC

| Structure (SMILES) | Ki [nM] |
| --- | --- |
| CCC(CC)(NC(=O)c1ccc(N2CC(OC)C2)c(OC[C@H]2C[C@@H]2CO)n1)C(=O)OCF (stereo in doubt) [Example 12, (+)-trans-Fluoromethyl 2-ethyl-2-{[6-{[-2-(hydroxymethyl)cyclopropyl]methoxy}-5-(3-methoxyazetidin-1-yl)pyridine-2-carbonyl]amino}butanoate] | 0.4 |

Same assay, conditions: membranes of HEK cells expressing human CNR2, 2.6 nM [3H]-CP-55,940 radioligand; read-out: Binding assay human CB2 Ki

| Structure (SMILES) | Ki [nM] |
| --- | --- |
| C=CC(C=C)(NC(=O)c1ccc(N2CC(OC)C2)c(OC[C@H]2C[C@@H]2CO)n1)C(=O)OCCCF [Example 20, 3-Fluoropropyl 2-[6-[[(1S,2S)-2-(hydroxymethyl)cyclopropyl]methoxy]-5-(3-methoxyazetidin-1-yl)pyridine-2-carbonylamino]-2-vinyl-but-3-enoate] | 525 |
| CCOC(=O)C(CC)(CC)NC(=O)c1ccc(N2CC(OC)C2)c(OCC(C)(C)COCF)n1 [Example 8, Ethyl 2-ethyl-2-({6-[3-(fluoromethoxy)-2,2-dimethylpropoxy]-5-(3-methoxyazetidin-1-yl)pyridine-2-carbonyl}amino)butanoate] | 143 |
| CCC(CC)(NC(=O)c1ccc(N2CC(OC)C2)c(OC[C@@H]2C[C@H]2CO)n1)C(=O)OCCF [Example 14, (−)-trans-2-Fluoroethyl 2-ethyl-2-{[6-{[-2-(hydroxymethyl)cyclopropyl]methoxy}-5-(3-methoxyazetidin-1-yl)pyridine-2-carbonyl]amino}butanoate] | 11.4 |
| CCC(CC)(NC(=O)c1ccc(N2CC(OC)C2)c(OC[C@@H]2C[C@H]2CO)n1)C(=O)OCF [Example 11, (−)-trans-Fluoromethyl 2-ethyl-2-{[6-{[(1R,2R)-2-(hydroxymethyl)cyclopropyl]methoxy}-5-(3-methoxyazetidin-1-yl)pyridine-2-carbonyl]amino}butanoate] | 9.7 |
| CCC(CC)(NC(=O)c1ccc(N2CCCC2)c(OCC2(CO)COC2)n1)C(=O)OCCF [Example 34, 2-Fluoroethyl 2-ethyl-2-(6-((3-(hydroxymethyl)oxetan-3-yl)methoxy)-5-(pyrrolidin-1-yl)picolinamide)butanoate] | 607 |
| COC1CN(c2ccc(C(=O)N[C@H](COCCF)CC(C)C)nc2OCC2COC2)C1 [Example 17, N-[(2S)-1-(2-Fluoroethoxy)-4-methylpentan-2-yl]-5-(3-methoxyazetidin-1-yl)-6-[(oxetan-3-yl)methoxy]pyridine-2-carboxamide] | 331 |
| CCC(CC)(NC(=O)c1ccc(N2CC(OC)C2)c(OC[C@@H]2C[C@H]2CO)n1)C(=O)OCCCF [Example 16, 3-Fluoropropyl 2-ethyl-2-{[6-{[(1R,2R)-2-(hydroxymethyl)cyclopropyl]methoxy}-5-(3-methoxyazetidin-1-yl)pyridine-2-carbonyl]amino}butanoate] | 18.8 |
| CCOC(=O)C(CC)(CC)NC(=O)c1ccc(N2CC(OC)C2)c(OC[C@@H]2C[C@@H]2CF)n1 (mixture of isomers) [Example 4, Ethyl 2-ethyl-2-{[6-{[(1R,2S)-2-(fluoromethyl)cyclopropyl]methoxy}-5-(3-methoxyazetidin-1-yl)pyridine-2-carbonyl]amino}butanoate and ethyl 2-ethyl-2-{[6-{[(1S,2R)-2-(fluoromethyl)cyclopropyl]methoxy}-5-(3-methoxyazetidin-1-yl)pyridine-2-carbonyl]amino}butanoate] | 0.7 |
| CCOC(=O)C(CC)(CC)NC(=O)c1ccc(N2CC(OC)C2)c(OC[C@H]2C[C@@H]2CF)n1 (mixture of isomers) [Example 3, Ethyl 2-ethyl-2-{[6-{[(1S,2S)-2-(fluoromethyl)cyclopropyl]methoxy}-5-(3-methoxyazetidin-1-yl)pyridine-2-carbonyl]amino}butanoate and ethyl 2-ethyl-2-{[6-{[(1R,R)-2-(fluoromethyl)cyclopropyl]methoxy}-5-(3-methoxyazetidin-1-yl)pyridine-2-carbonyl]amino}butanoate] | 0.5 |
| [2H]C([2H])(OC(=O)C(CC)(CC)NC(=O)c1ccc(N2CC(OC)C2)c(OC[C@H]2C[C@@H]2CO)n1)C([2H])([2H])C([2H])([2H])OS(=O)(=O)c1ccc(C)cc1 [Example 24, [1,1,2,2,3,3-Hexadeuterio-3-(p-tolylsulfonyloxy)propyl] 2-ethyl-2-[[6-[[(1S,2S)-2-(hydroxymethyl)cyclopropyl]methoxy]-5-(3-methoxyazetidin-1-yl)pyridine-2-carbonyl]amino]butanoate] | 65.5 |

Reference: patent US11655243B2, “Pyridine and pyrazine derivatives as preferential cannabinoid 2 agonists” (HOFFMANN-LA ROCHE INC., priority 2018, dated 2023)
